system: A2780 human ovarian cancer cells; experiment: In vitro cell proliferation assay (CellTiter-Glo); assay type: cell-based; conditions: 72 hours treatment
Protocol: A2780 human ovarian and MCF7 human breast cancer cells (1250 cells/well) were seeded in white 384 well-plates in complete medium (RPMI 1640 or EMEM plus 10% Fetal bovine serum) and treated with compounds dissolved in 0.1% DMSO, 24 h after seeding. The cells were incubated at 37° C. and 5% CO2 and after 72 hours the plates were processed using CellTiter-Glo assay (Promega) following the manufacturer's instruction. CellTiter-Glo is a homogenous method based on the quantification of the ATP present, an indicator of metabolitically active cells. ATP is quantified using a system based on luciferase and D-luciferin resulting into light generation. The luminescent signal is proportional to the number of cells present in culture.
Briefly 25 μl/well reagent solution were added to each well and after 5 minutes shacking microplates were red by Envision (PerkinElmer) luminometer. The luminescent signal was proportional to the number of cells present in culture.
Inhibitory activity was evaluated comparing treated versus control data using Assay Explorer (MDL) program. IC50 was calculated using sigmoidal interpolation curve.

SMILES | IC50
CCc1cccc(CC)c1NC(=O)c1nn(C)c2c1CCc1cnc(Nc3ccc(C(=O)NC4CCN(C)CC4)cc3OC)nc1-2 [Compound 2, N-(2,6-diethylphenyl)-8-({2-methoxy-4-[(1-methylpiperidin-4-yl)carbamoyl]phenyl}amino)-1-methyl-4,5-dihydro-1H-pyrazolo[4,3-h]quinazoline-3-carboxamide] | 150 nM
CCc1cccc(CC)c1NC(=O)c1nn(C)c2c1CCc1cnc(Nc3ccc(N4CCN(C)CC4)cc3OC(F)(F)F)nc1-2 [Compound 3, N-(2,6-diethylphenyl)-1-methyl-8-{[4-(4-methylpiperazin-1-yl)-2-(trifluoromethoxy)phenyl]amino}-4,5-dihydro-1H-pyrazolo[4,3-h]quinazoline-3-carboxamide] | 350 nM
CCc1cccc(CC)c1NC(=O)c1nn(C)c2c1CCc1cnc(Nc3ccc(N4CCN(C)CC4)cc3OC)nc1-2 [Compound 5, N-(2,6-diethylphenyl)-8-{[2-methoxy-4-(4-methylpiperazin-1-yl)phenyl]amino}-1-methyl-4,5-dihydro-1H-pyrazolo[4,3-h]quinazoline-3-carboxamide] | 100 nM
CCc1cccc(CC)c1NC(=O)c1nn(C)c2c1CCc1cnc(Nc3ccc(N(C)CCCN(C)C)cc3OC)nc1-2 [Compound 7, N-(2,6-diethylphenyl)-8-[(4-{[3-(dimethylamino)propyl](methyl)amino}-2-methoxyphenyl)amino]-1-methyl-4,5-dihydro-1H-pyrazolo[4,3-h]quinazoline-3-carboxamide] | 140 nM
CCc1cccc(CC)c1NC(=O)c1nn(C)c2c1CCc1cnc(Nc3ccc(C(N)=O)cc3OC)nc1-2 [Compound 13, 8-[(4-carbamoyl-2-methoxyphenyl)amino]-N-(2,6-diethylphenyl)-1-methyl-4,5-dihydro-1H-pyrazolo[4,3-h]quinazoline-3-carboxamide] | 100 nM
CCc1cccc(CC)c1NC(=O)c1nn(C)c2c1CCc1cnc(NC3CCN(S(=O)(=O)CCNC)CC3)nc1-2 [Compound 56, N-(2,6-diethylphenyl)-1-methyl-8-[(1-{[2-(methylamino)ethyl]sulfonyl}piperidin-4-yl)amino]-4,5-dihydro-1H-pyrazolo[4,3-h]quinazoline-3-carboxamide] | 150 nM
CCc1cccc(CC)c1NC(=O)c1nn(C)c2c1CCc1cnc(NC3CCN(S(C)(=O)=O)CC3)nc1-2 [Compound 57, N-(2,6-diethylphenyl)-1-methyl-8-{[1-(methylsulfonyl)piperidin-4-yl]amino}-4,5-dihydro-1H-pyrazolo[4,3-h]quinazoline-3-carboxamide] | 130 nM
CCc1cccc(CC)c1NC(=O)c1nn(C)c2c1CCc1cnc(NC3CCN(C(=O)CCNC)CC3)nc1-2 [Compound 66, N-(2,6-diethylphenyl)-1-methyl-8-{[1-(N-methyl-beta-alanyl)piperidin-4-yl]amino}-4,5-dihydro-1H-pyrazolo[4,3-h]quinazoline-3-carboxamide] | 650 nM
Cn1nc(C(=O)N(O)C2CCCCC2)c2c1-c1nc(NC3CCCC3)ncc1CC2 [Prior art compound, N-cyclohexyl-8-(cyclopentylamino)-N-hydroxy-1-methyl-4,5-dihydro-1H-pyrazolo[4,3-h]quinazoline-3-carboxamide, reference compound] | 3400 nM

— US8846701B2, “Pyrazolo-quinazolines” (Nerviano Medical Sciences S.R.L., priority 2008, dated 2014)
